Read-outs that look alike come from different tables or passages of the source.
Assays:
[1] = In vitro plasma stability, human plasma; settings: human, plasma, Plasma stability % Remaining, 37 °C, time point 120 min
[2] = tested on: Mtb ΔpanCDΔlysA; type: cell-based, Mycobacterium tuberculosis; settings: MIC90 in presence vs absence of 4 μg/mL clavulanate, replicating Mtb
[3] = in vivo; settings: female, 129sv DHP-1 knockout, mouse, sc
[4] = In vitro plasma stability, SD rat plasma; settings: SD, rat, plasma, Plasma stability % Remaining, 37 °C, time point 120 min
[5] = tested on: Caco-2 cells; assay: Caco-2 permeability / efflux transporter substrate; settings: Caco-2
[6] = Caco-2 permeability / efflux transporter substrate; settings: human
[7] = tested on: wild-type Mtb H37Rv; type: in vivo, 129sv DHP-1 knockout mice; settings: for Log10 CFU per mouse (lungs), Mean: days 9-15, lungs day 16, untreated day 16 mean 9.1
[8] = Stability in fasted simulated intestinal fluid (FaSSIF); settings: fasted simulated intestinal fluid (FaSSIF), pH 6.5, FaSSIF Stability, % remaining, pH 6.5, room temperature
[9] = In vitro plasma stability, beagle dog plasma; settings: beagle, dog, plasma
[10] = female, 129sv DHP-1 knockout, mouse, in vivo
[11] = Stability in simulated gastric fluid (SGF); settings: simulated gastric fluid (SGF), pH 1.2
[12] = In vitro plasma stability, CD-1 mouse plasma; settings: male, CD-1, mouse, plasma, Plasma stability % Remaining, Mouse, 37 °C, time point 120 min
[13] = In vitro plasma stability, cynomolgus monkey plasma; settings: monkey, plasma

SMILES: C[C@@H](O)[C@H]1C(=O)N2C(C(=O)O)=C(S[C@@H]3CN[C@H](C(=O)N(C)C)C3)[C@H](C)[C@H]12 [Meropenem, reference compound]
- remaining at 2 h, 2 μM [1]: 70.6%
- clavulanate shift of MIC90 [2]: ~8 fold
- AUC(0-t) ([3]; 50 mg/kg): 387 ng·h/mL
- Cmax ([3]; 50 mg/kg): 724 ng/mL
- Tmax ([3]; 50 mg/kg): 30 min
- AUC(0-t) ([3]; 300 mg/kg): 2000 ng·h/mL
- Cmax ([3]; 300 mg/kg): 3340 ng/mL
- Tmax ([3]; 300 mg/kg): 30 min
- remaining at 2 h, 2 μM [4]: 57.7%
- Caco-2 Rank Papp [5]: Low
- Papp A→B at 120 min, 3 μM ([6]; Caco-2, pH 7.4): < 0.26 ×10⁻⁶ cm/s
- Papp B→A at 120 min, 3 μM ([6]; Caco-2, pH 7.4): < 0.24 ×10⁻⁶ cm/s
- recovery at 120 min, 3 μM ([6]; Caco-2, pH 7.4, Caco-2 Mean Recovery % A to B): < 91%
- recovery at 120 min, 3 μM ([6]; Caco-2, pH 7.4, Caco-2 Mean Recovery % B to A): < 94.2%
- Log10 CFU per mouse (lungs), Mean ([7]; 50 mg/kg sc bid + clavulanate 100 mg/kg po bid): 7.6 Log10 CFU
- Log10 CFU per mouse (lungs), Mean ([7]; 300 mg/kg sc bid + clavulanate 100 mg/kg po bid): 7.1 Log10 CFU
- effect on lung CFU (in words) ([7]; mouse, in vivo): bacteriostatic impact
- remaining at 6 h, 10 μM ([8]; 6h): 94.1%
- remaining at 24 h, 10 μM ([8]; 24h): 76.8%
- remaining at 2 h, 2 μM [9]: 75.2%
- Tlast [10]: 1.0 h
- remaining at 1 h, 10 μM [11]: 111%
- remaining at 24 h, 10 μM [11]: 100%
- remaining at 2 h, 2 μM [12]: 74.7%
- remaining at 2 h, 2 μM [13]: 99.9%

— publication PMC8922279, “Identification of β-Lactams Active against Mycobacterium tuberculosis by a Consortium of Pharmaceutical Companies and Academic Institutions” (ACS Infectious Diseases, 2022)
